From patent US20220016112A1, “DIHYDROQUINOXALINE AND DIHYDROPYRIDOPYRAZINE DERIVATIVES AS RSV INHIBITORS” (Enanta Pharmaceuticals, Inc., priority 2020, published 2022) come the findings set out here.

The structures appear in SMILES notation. Where two headings read alike, the source gives them in different places.

The term EC50 denotes the concentration needed to bring the measured effect to its halfway point.

This assay concerns Human RSV-A (“Long” strain). As to the kind of experiment: RSV in vitro cytoprotection assay in HEp-2 cells (ATPlite readout). Format: cell-based. The settings on record: human respiratory syncytial virus. The source says:
RSV is a single stranded negative sense RNA virus that causes respiratory tract infections which can be dangerous to infants, the elderly, and immunosuppressed individuals. Currently there is no vaccine, and therapeutic options are both costly and of limited effectiveness. These approved treatments are Ribavirin, and Palivizumab/Synagis (a monoclonal antibody). RSV has two genotypes, A and B, which differ primarily in the structure of the virus' surface “G” attachment protein. Our current primary screen focusses on RSV-A and uses an in vitro cytoprotection assay where compounds are added in 2-fold dilutions to cells which are then subjected to fully replicative viral particles. Cell viability is measured several days later along with separate measurements of compound cytotoxicity. This report focuses on the results of our most recent screening of compounds.
HEp-2 cells, (originally derived from tumors grown in irradiated-cortisonised weanling rats that had been injected with epidermoid carcinoma tissue from a person's larynx, but later found to be indistinguishable from HeLa cells by PCR DNA analysis), were used for the culturing of genotype A, “Long” strain RSV. Flasks were inoculated with RSV and viral stocks were collected once cytopathic effect (CPE) was greater than 90%. Viral stocks in 25% sucrose media were snap frozen using liquid nitrogen to increase viral stability. Viral stock titers were quantified by tissue culture infectious dose 50% (TCID50) using 8,000 cells per well and 3-fold viral dilutions across a 96-well plate, cultured for 4 days.
Following extensive parameter testing, the final assay is run as follows: HEp-2 cells are seeded into the inner 60 wells of a 96-well plate at 8,000 cells per well in a volume of 50 μL using Growth Media (DMEM without phenol red, 1% L-Glut, 1% Penn/Strep, 1% nonessential amino acids, 10% FBS). 2-Fold serial dilutions of control and test compounds are added to the wells in duplicate in a total volume of 25 μL. Viral stock is then added to the wells in a volume of 25 μL, bringing the total volume of each well to 100 μL. Each 96-well plate has a control column of 6 wells with cells and virus but no compound (negative control, max CPE), a column with cells but no compound or virus (positive control, minimum CPE), and a column with no cells or virus or compound (background plate/reagent control). The control wells with cells but no virus are given an additional 25 uL of growth media containing an equal quantity of sucrose as those wells receiving the viral stock in order to keep consistent in media and volume conditions. The outer wells of the plate are filled with 125 μL of growth media to act as a thermal and evaporative moat around the test wells. Following a 4-day incubation period, the plates are read using ATPlite (50 uL added per well), which quantifies the amount of ATP (a measure of cell health) present in each well. Assay plates are read using the Envision luminometer. In parallel, cytotoxicity is examined on an additional 96-well plate treated in an identical manner, but substituting the 25 μL of viral stock for 25 μL of growth media. […] EC50 ranges are as follows: A<0.01 μM; B 0.01-0.05 μM; C>0.05 μM.
(Cellular ATP, detected with luciferase, serves as a proxy for viable cell number.)

Where [1] appears, read: 96 h, HEp-2 cells, genotype A “Long” strain RSV, 4-day incubation, ATPlite, read-out: Human RSV-A (“Long” strain) EC50.

For the compound `Cc1cnc(N2CC3(CCOCC3)C2)c(C(=O)Nc2ccc(C(=O)N3c4ccccc4N=C(c4ccc(C(=O)NC5CC5)s4)[C@@H]3C)cc2)c1` [Example 1], the EC50 under setting [1] was in the range of 10 to 50 nM. On the same count and under the same terms, the value for `Cc1cnc(N2CC3(CCOCC3)C2)c(C(=O)Nc2ccc(C(=O)N3c4ccccc4N=C(c4ccc(C(=O)Nc5c(C)cccc5F)s4)[C@@H]3C)cc2)c1` [Example 2] was above 50 nM. As for `Cc1cnc(N2CC3(CCOCC3)C2)c(C(=O)Nc2ccc(C(=O)N3c4ccccc4N=C(c4ccc(C(=O)NC5CCC5)s4)[C@@H]3C)cc2)c1` [Example 3], the EC50 under setting [1] was above 50 nM. Still for that read-out and setting: the value for `Cc1cnc(N2CC3(CCOCC3)C2)c(C(=O)Nc2ccc(C(=O)N3c4ccccc4N=C(c4ccc(C(=O)NC5CC5)cc4)[C@@H]3C)cc2)c1` [Example 4] was above 50 nM. Still for that read-out and setting: the value for `Cc1cnc(N2CC3(CCOCC3)C2)c(C(=O)Nc2ccc(C(=O)N3c4ccccc4N=C(c4ccc(C(=O)Nc5c(C)cccc5F)cc4)[C@@H]3C)cc2)c1` [Example 5] was above 50 nM; that for `Cc1cnc(N2CC3(CCOCC3)C2)c(C(=O)Nc2ccc(C(=O)N3c4ccccc4N=C(c4ccc(C(=O)NC5CC5)s4)[C@H]3C)cc2)c1` [Example 6] was below 10 nM; that for `Cc1cnc(N2CC3(CCOCC3)C2)c(C(=O)Nc2ccc(C(=O)N3c4ccccc4N=C(c4ccc(C(=O)Nc5c(C)cccc5F)s4)[C@H]3C)cc2)c1` [Example 7] was 10 to 50 nM. Same read-out and setting: to `Cc1cnc(N2CC3(CCOCC3)C2)c(C(=O)Nc2ccc(C(=O)N3c4ccccc4N=C(c4ccc(C(=O)NC5(C)CC5)s4)[C@H]3C)cc2)c1` [Example 8] belongs below 10 nM; to `Cc1cnc(N2CC3(CCOCC3)C2)c(C(=O)Nc2ccc(C(=O)N3c4ccccc4N=C(c4ccc(C(=O)NC5CCC5)s4)[C@H]3C)cc2)c1` [Example 9], below 10 nM. In the case of `Cc1cnc(N2CC3(CCOCC3)C2)c(C(=O)Nc2ccc(C(=O)N3c4ccccc4N=C(c4ccc(C(=O)NC5CC(F)(F)C5)s4)[C@H]3C)cc2)c1` [Example 10], under setting [1], the EC50 lay within 10 to 50 nM. In the case of `Cc1cnc(N2CC3(CCOCC3)C2)c(C(=O)Nc2ccc(C(=O)N3c4ccccc4N=C(c4ccc(C(=O)NC5(C)CCC5)s4)[C@H]3C)cc2)c1` [Example 11], the EC50 under setting [1] is below 10 nM.

Consider `Cc1cnc(N2CC3(CCOCC3)C2)c(C(=O)Nc2ccc(C(=O)N3c4ccccc4N=C(c4ccc(C(=O)NC56CC(C5)C6)s4)[C@H]3C)cc2)c1` [Example 12], for which the concentration for a half-maximal effect (EC50) under setting [1] was below 10 nM.

For the compound `Cc1cnc(N2CC3(CCOCC3)C2)c(C(=O)Nc2ccc(C(=O)N3c4ccccc4N=C(c4ccc(C(=O)NC56CC(C)(C5)C6)s4)[C@H]3C)cc2)c1` [Example 13], under setting [1], the EC50 was below 10 nM. `Cc1cnc(N2CC3(CCOCC3)C2)c(C(=O)Nc2ccc(C(=O)N3c4ccccc4N=C(c4ccc(C(=O)Nc5ncccc5F)s4)[C@H]3C)cc2)c1` [Example 14]: under setting [1], the EC50 fell in the range of 10 to 50 nM. On the same count and under the same terms, to `Cc1ccc(C(=O)Nc2ccc(C(=O)N3c4ccccc4N=C(c4ccc(C(=O)NC5CC5)s4)[C@H]3C)cc2)c(N2CC3(CCOCC3)C2)n1` [Example 15] belongs below 10 nM; to `Cc1ccc(C(=O)Nc2ccc(C(=O)N3c4ccccc4N=C(c4ccc(C(=O)NC5CCC5)s4)[C@H]3C)cc2)c(N2CC3(CCOCC3)C2)n1` [Example 16], below 10 nM; to `C[C@@H]1C(c2ccc(C(=O)NC3CC3)s2)=Nc2ccccc2N1C(=O)c1ccc(NC(=O)c2cc3c(nc2N2CC4(CCOCC4)C2)CCC3)cc1` [Example 17], below 10 nM. In the case of `C[C@@H]1C(c2ccc(C(=O)NC3CCC3)s2)=Nc2ccccc2N1C(=O)c1ccc(NC(=O)c2cc3c(nc2N2CC4(CCOCC4)C2)CCC3)cc1` [Example 18], the 50% effective concentration (EC50) under setting [1] was below 10 nM. On the same count and under the same terms, the value for `C[C@@H]1C(c2ccc(C(=O)NC3CC3)s2)=Nc2ccccc2N1C(=O)c1ccc(NC(=O)c2cc(C3CC3)cnc2N2CC3(CCOCC3)C2)cc1` [Example 19] was below 10 nM; that for `C[C@@H]1C(c2ccc(C(=O)NC3CCC3)s2)=Nc2ccccc2N1C(=O)c1ccc(NC(=O)c2cc(C3CC3)cnc2N2CC3(CCOCC3)C2)cc1` [Example 20] was below 10 nM; that for `CCc1cnc(N2CC3(CCOCC3)C2)c(C(=O)Nc2ccc(C(=O)N3c4ccccc4N=C(c4ccc(C(=O)NC5CC5)s4)[C@H]3C)cc2)c1` [Example 21] was below 10 nM. For the compound `CCc1cnc(N2CC3(CCOCC3)C2)c(C(=O)Nc2ccc(C(=O)N3c4ccccc4N=C(c4ccc(C(=O)NC5CCC5)s4)[C@H]3C)cc2)c1` [Example 22], the concentration for a half-maximal effect (EC50) under setting [1] is below 10 nM. On the same count and under the same terms, to `C[C@@H]1C(c2ccc(C(=O)NC3CC3)s2)=Nc2ccccc2N1C(=O)c1ccc(NC(=O)c2cc(C(F)(F)F)cnc2N2CC3(CCOCC3)C2)cc1` [Example 23] belongs 10 to 50 nM; to `C[C@@H]1C(c2ccc(C(=O)NC3CCC3)s2)=Nc2ccccc2N1C(=O)c1ccc(NC(=O)c2cc(C(F)(F)F)cnc2N2CC3(CCOCC3)C2)cc1` [Example 24], 10 to 50 nM. Same read-out and setting: the value for `Cc1cnc(N2CC3(CCOCC3)C2)c(C(=O)Nc2ccc(C(=O)N3c4ccccc4N=C(c4ccc(C(=O)NC5CC5)cc4)[C@H]3C)cc2)c1` [Example 25] was above 50 nM.

As to `Cc1cnc(N2CC3(CCOCC3)C2)c(C(=O)Nc2ccc(C(=O)N3c4ccccc4N=C(c4ccc(C(=O)Nc5c(C)cccc5F)cc4)[C@H]3C)cc2)c1` [Example 26], the concentration for a half-maximal effect (EC50) under setting [1] was above 50 nM. Same read-out and setting: to `Cc1cnc(N2CC3(CCOCC3)C2)c(C(=O)Nc2ccc(C(=O)N3c4ccccc4N=C(c4ccc(C(=O)NC5CC5)s4)C3(C)C)cc2)c1` [Example 27] belongs above 50 nM.

For `Cc1cnc(N2CC3(CCOCC3)C2)c(C(=O)Nc2ccc(C(=O)N3c4ccccc4N=C(c4ccc(C(=O)NC5CCC5)s4)C3(C)C)cc2)c1` [Example 28], under setting [1], the EC50 is below 10 nM. On the same count and under the same terms, to `Cc1cnc(N2CC3(CCOCC3)C2)c(C(=O)Nc2ccc(C(=O)N3c4cccnc4N=C(c4ccc(C(=O)NC5CCC5)s4)[C@H]3C)cc2)c1` [Example 29] belongs 10 to 50 nM; to `Cc1cnc(N2CC3(CCOCC3)C2)c(C(=O)Nc2ccc(C(=O)N3c4ncccc4N=C(c4ccc(C(=O)NC5CC5)s4)[C@H]3C)cc2)c1` [Example 30], above 50 nM. The same measure, in the same setting: the value for `Cc1cnc(N2CC3(CCOCC3)C2)c(C(=O)Nc2ccc(C(=O)N3c4ncccc4N=C(c4ccc(C(=O)NC5CCC5)s4)[C@H]3C)cc2)c1` [Example 31] was 10 to 50 nM.

Consider `O=C(Nc1ccccc1F)N[C@H]1N=C(c2ccccc2)c2ccccc2NC1=O` [RSV-604, reference compound], for which the EC50 (HEp-2) is around 2400 nM.
